Data published in article PMC9097129, “C-terminal mini-PEGylation of a marine peptide N6 had potent antibacterial and anti-inflammatory properties against Escherichia coli and Salmonella strains in vitro and in vivo” (BMC Microbiology, 2022).

Tests used:
E. coli 0111:B4 LPS = experiment: Endotoxemia mouse model, serum cytokines by ELISA; format: in vivo, mice; parameters: levels of TNF-α in sera: unit not given here; details: for levels of TNF-α in sera / levels of IL-1β in sera: ELISA kit, mean of n = 3; for Decrease of serum IL-1β level / Decrease of serum IL-6 level / Decrease of serum IL-10 level / Decrease of serum TNF-α level: LPS 10 mg/kg i.p., peptides 0.25 μmol/kg, PMB 10 μmol/kg, CIP 5 μmol/kg
Procedure: The mice (10 mice/group) were injected intraperitoneally with N6 and N6-COOH-miniPEG (0.25 μmol/kg), PMB (10 μmol/kg) or CIP (5 μmol/kg) 0.5 h after challenge with 10 mg/kg E. coli 0111:B4 LPS. Blood was collected in a heparin sodium tube at 2 or 8 h after LPS injection and incubated for 30 min at 37 °C and then overnight at 4 °C. After centrifugation at 3,000 rpm for 10 min at 4 °C, serum was collected from supernatant. The cytokine levels of TNF-α, IL-6, IL-1β and IL-10 in serum were detected by the Jiaxuan Biotech. Co. Ltd. (Beijing, China) using an ELISA. […]

E. coli CVCC195 [1] = experiment: Mouse peritonitis model, survival; format: in vivo, ICR mice; parameters: survival of mice in E. coli lethal model: unit not given here
Procedure: To evaluate in vivo efficacy of N6 and N6-COOH-miniPEG, the 6-week-old female ICR mice, weight 20 ± 2 g (10 mice/group) were intraperitoneally injected with E. coli CVCC195 or S. pullorum CVCC533 at a concentration of absolute lethal dose (LD100). After the intraperitoneal injection with E. coli CVCC195 (1 × 10^9 CFU/mL, 0.2 mL), the mice were treated with N6 (2 and 4 μmol/kg), N6-COOH-miniPEG (2 and 4 μmol/kg) or PMB (0.125 and 0.25 μmol/kg) at 0.5 h and 8 h, respectively.
(§1) Similarly, after the intraperitoneal injection with S. pullorum CVCC533 (5 × 10^7 CFU/mL, 0.2 mL), the mice were treated with N6 (8 and 10 μmol/kg), N6-COOH-miniPEG (8 and 10 μmol/kg) or CIP (0.8 and 1 μmol/kg) at 0.5 h, respectively. The mice injected with antibiotics or PBS served as the positive and blank control (CK), respectively. Survival of the mice was recorded daily for 7 d.

E. coli CVCC195 [2] = experiment: Organ injury, histopathology (HE); format: in vivo, mice; details: 24 h and 5 d post-treatment, peptides 4 μmol/kg, HE staining
Procedure: (§2) The mice were treated with N6 (4 and 10 μmol/kg) and N6-COOH-miniPEG (4 and 10 μmol/kg) after intraperitoneal injection of E. coli CVCC195 for 0.5 and 8 h or S. pullorum CVCC533 for 0.5 h as described above. Livers, spleens, kidneys and lungs were removed from the mice at 24 h and 5 d post-treatment after E. coli CVCC195 injection and at 48 h and 4 d post-treatment after S. pullorum CVCC533 injection, respectively, washed in PBS, fixed in 4% paraformaldehyde at 4 °C for 24 h, and stained with hematoxylin and eosin (HE) for histopathology analysis. Finally, the tissue samples were fixed and observed by the light microscope. The uninfected mice served as the blank control (CK); the infected mice being treated with PBS were used as the negative control.

E. coli CVCC195 [3] = experiment: Bacterial translocation, bacterial loads in organs; format: in vivo, mice; parameters: unit not given here; details: mean of n = 3
Procedure: (§3) The mice (10 mice/group) were challenged with E. coli CVCC195 (1 × 10^9 CFU/mL, 0.2 mL) or S. pullorum CVCC533 (5 × 10^7 CFU/mL, 0.2 mL) by intraperitoneal injection and treated with N6 (4 and 10 μmol/kg) or N6-COOH-miniPEG (4 and 10 μmol/kg). To evaluate bacterial loads in organs, the livers, spleens, kidneys and lungs were removed from the sacrificed mice at 24 h post treatment and homogenized in sterile PBS for E. coli CVCC195 colony counting; similarly, the livers, spleens, kidneys and lungs were removed from the sacrificed mice at 48 h after treatment and homogenized in sterile PBS for S. pullorum CVCC533 colony counting. The uninfected mice served as the blank control (CK); the infected mice treated with PBS were used as the negative control. The mice were sacrificed by neck dislocation under inhaled isoflurane anesthesia (RWD Life Science Co., LTD. Shenzhen, China).

S. pullorum CVCC533 [4] = experiment: Bacterial translocation, bacterial loads in organs; format: in vivo, mice; parameters: bacteria counted in the organs of mice infected with S. pullorum: unit not given here
Procedure: as §3

S. pullorum CVCC533 [5] = experiment: Organ injury, histopathology (HE); format: in vivo, mice; details: 48 h and 4 d post-treatment, peptides 10 μmol/kg, HE staining
Procedure: as §2

S. pullorum CVCC533 [6] = experiment: Time-killing curves; format: cell-based, Salmonella pullorum; details: 1 × MIC
Procedure: The sample (100 μL) was taken from each flask at 0, 0.5, 1, 2, 4, 6, 8, 10, 12, and 24 h, respectively and serially diluted for colony counting. The group untreated with peptides was a blank control. PMB and CIP were used as the positive control. Similarly, bacterial cells (1 × 10^5 CFU/mL) were incubated with 3/128, 1/32, 3/64, 1/16, 3/32, 1/8, 3/16, 1/4, 3/8, 1/2, 3/4, 1, 2, 3, and 4 × MIC N6 or N6-COOH-miniPEG. The sample was taken from each flask at 24 h and serially diluted for colony counting.

S. pullorum CVCC533 [7] = experiment: Mouse peritonitis model, survival; format: in vivo, ICR mice
Procedure: as §1

[8] = peptides 10 μmol/kg, CIP 1 μmol/kg, 48 h after treatment, versus untreated infected mice

polymyxin B [PMB]
levels of TNF-α in sera (E. coli 0111:B4 LPS; 2 h after treatment): 99.8667 | levels of TNF-α in sera (E. coli 0111:B4 LPS; 8 h after treatment): 239.767 | survival of mice in E. coli lethal model (E. coli CVCC195 [1]; 0.125 μmol/kg, day 0): 100 | survival of mice in E. coli lethal model (E. coli CVCC195 [1]; 0.125 μmol/kg, day 1): 80 | survival of mice in E. coli lethal model (E. coli CVCC195 [1]; 0.125 μmol/kg, day 2): 60 | survival of mice in E. coli lethal model (E. coli CVCC195 [1]; 0.125 μmol/kg, day 3): 30 | survival of mice in E. coli lethal model (E. coli CVCC195 [1]; 0.125 μmol/kg, day 4): 30 | survival of mice in E. coli lethal model (E. coli CVCC195 [1]; 0.125 μmol/kg, day 5): 30 | survival of mice in E. coli lethal model (E. coli CVCC195 [1]; 0.125 μmol/kg, day 6): 30 | survival of mice in E. coli lethal model (E. coli CVCC195 [1]; 0.125 μmol/kg, day 7): 30 | Survival rate of mice (E. coli CVCC195 [1]; 0.25 μmol/kg i.p. at 0.5 h and 8 h, 7 d): 100% | survival of mice in E. coli lethal model (E. coli CVCC195 [1]; 0.25 μmol/kg, day 0): 100 | survival of mice in E. coli lethal model (E. coli CVCC195 [1]; 0.25 μmol/kg, day 1): 100 | survival of mice in E. coli lethal model (E. coli CVCC195 [1]; 0.25 μmol/kg, day 2): 100 | survival of mice in E. coli lethal model (E. coli CVCC195 [1]; 0.25 μmol/kg, day 3): 100 | survival of mice in E. coli lethal model (E. coli CVCC195 [1]; 0.25 μmol/kg, day 4): 100 | survival of mice in E. coli lethal model (E. coli CVCC195 [1]; 0.25 μmol/kg, day 5): 100 | survival of mice in E. coli lethal model (E. coli CVCC195 [1]; 0.25 μmol/kg, day 6): 100 | survival of mice in E. coli lethal model (E. coli CVCC195 [1]; 0.25 μmol/kg, day 7): 100 | Organ injury, histopathology (E. coli CVCC195 [2]): apparently less damage of liver, spleen, kidney and lung | bacteria counted in the organs of mice infected with E. coli (E. coli CVCC195 [3]; Kidney): 3.851 | bacteria counted in the organs of mice infected with E. coli (E. coli CVCC195 [3]; Liver): 3.743 | bacteria counted in the organs of mice infected with E. coli (E. coli CVCC195 [3]; Lung): 3.796 | bacteria counted in the organs of mice infected with E. coli (E. coli CVCC195 [3]; Spleen): 3.605

O=C(O)c1cn(C2CC2)c2cc(N3CCNCC3)c(F)cc2c1=O [CIP]
bacteria counted in the organs of mice infected with S. pullorum (S. pullorum CVCC533 [4]; Kidney, mean): 3.299 | bacteria counted in the organs of mice infected with S. pullorum (S. pullorum CVCC533 [4]; Liver, replicate 1): 3.641 | bacteria counted in the organs of mice infected with S. pullorum (S. pullorum CVCC533 [4]; Liver, replicate 2): 4.221 | bacteria counted in the organs of mice infected with S. pullorum (S. pullorum CVCC533 [4]; Lung, mean): 3.527 | bacteria counted in the organs of mice infected with S. pullorum (S. pullorum CVCC533 [4]; Spleen, replicate 1): 4.255 | bacteria counted in the organs of mice infected with S. pullorum (S. pullorum CVCC533 [4]; Spleen, replicate 2): 4.222 | bacteria counted in the organs of mice infected with S. pullorum (S. pullorum CVCC533 [4]; Spleen, replicate 3): 3.905 | Decrease of bacterial count in kidneys (S. pullorum CVCC533 [4]; [8]): 40.20% | Decrease of bacterial count in livers (S. pullorum CVCC533 [4]; [8]): 31.66% | Decrease of bacterial count in lungs (S. pullorum CVCC533 [4]; [8]): 43.65% | Decrease of bacterial count in spleens (S. pullorum CVCC533 [4]; [8]): 47.75% | Decrease of serum IL-1β level (E. coli 0111:B4 LPS; 2 h): 9.13% | Decrease of serum IL-6 level (E. coli 0111:B4 LPS; 2 h): 30.83% | Decrease of serum IL-10 level (E. coli 0111:B4 LPS; 2 h): 15.33% | Decrease of serum TNF-α level (E. coli 0111:B4 LPS; 2 h): 1.78% | levels of IL-1β in sera (E. coli 0111:B4 LPS; 2 h after treatment): 87.9333 | levels of TNF-α in sera (E. coli 0111:B4 LPS; 2 h after treatment): 153 | Decrease of serum IL-1β level (E. coli 0111:B4 LPS; 8 h): 0.07% | Decrease of serum IL-6 level (E. coli 0111:B4 LPS; 8 h): -0.24% | Decrease of serum IL-10 level (E. coli 0111:B4 LPS; 8 h): 0.13% | Decrease of serum TNF-α level (E. coli 0111:B4 LPS; 8 h): -0.37% | levels of IL-1β in sera (E. coli 0111:B4 LPS; 8 h after treatment): 171.167 | levels of TNF-α in sera (E. coli 0111:B4 LPS; 8 h after treatment): 559.733 | Organ injury, histopathology (S. pullorum CVCC533 [5]): apparently less damage of liver, spleen, kidney and lung | Time to kill 99.9% of cells (S. pullorum CVCC533 [6]): ≤ 6 h | survival of mice in S. pullorum lethal model (S. pullorum CVCC533 [7]; 0.8 μmol/kg, day 0): 100 | survival of mice in S. pullorum lethal model (S. pullorum CVCC533 [7]; 0.8 μmol/kg, day 1): 100 | survival of mice in S. pullorum lethal model (S. pullorum CVCC533 [7]; 0.8 μmol/kg, day 2): 100 | survival of mice in S. pullorum lethal model (S. pullorum CVCC533 [7]; 0.8 μmol/kg, day 3): 100 | survival of mice in S. pullorum lethal model (S. pullorum CVCC533 [7]; 0.8 μmol/kg, day 4): 83.3333 | survival of mice in S. pullorum lethal model (S. pullorum CVCC533 [7]; 0.8 μmol/kg, day 5): 83.3333 | survival of mice in S. pullorum lethal model (S. pullorum CVCC533 [7]; 0.8 μmol/kg, day 6): 83.3333 | survival of mice in S. pullorum lethal model (S. pullorum CVCC533 [7]; 0.8 μmol/kg, day 7): 83.3333 | Survival rate of mice (S. pullorum CVCC533 [7]; 1 μmol/kg i.p. at 0.5 h (legend of Fig. 6: 0.5 and 8 h), 7 d): 100% | survival of mice in S. pullorum lethal model (S. pullorum CVCC533 [7]; 1 μmol/kg, day 0): 100 | survival of mice in S. pullorum lethal model (S. pullorum CVCC533 [7]; 1 μmol/kg, day 1): 100 | survival of mice in S. pullorum lethal model (S. pullorum CVCC533 [7]; 1 μmol/kg, day 2): 100 | survival of mice in S. pullorum lethal model (S. pullorum CVCC533 [7]; 1 μmol/kg, day 3): 100 | survival of mice in S. pullorum lethal model (S. pullorum CVCC533 [7]; 1 μmol/kg, day 4): 100 | survival of mice in S. pullorum lethal model (S. pullorum CVCC533 [7]; 1 μmol/kg, day 5): 100 | survival of mice in S. pullorum lethal model (S. pullorum CVCC533 [7]; 1 μmol/kg, day 6): 100 | survival of mice in S. pullorum lethal model (S. pullorum CVCC533 [7]; 1 μmol/kg, day 7): 100
